Laboratory results as given in ChEMBL document CHEMBL2346651, “Structure-activity relationship study of tachykinin peptides for the development of novel neurokinin-3 receptor selective agonists” (Bioorg Med Chem, 2013).
pEC50, pIC50: −log10 of the molar value. Residues, ends and D or L forms follow the SMILES beside them.

What was measured:
Neuromedin-K receptor [1] = target: T1, Neuromedin-K receptor (Homo sapiens, UniProt P29371); assay: Agonist activity at NK3R (unknown origin) transfected in CHO cells assessed as calcium influx […]; assay type: functional, cell-based
T1 sequence (P29371 whole entry): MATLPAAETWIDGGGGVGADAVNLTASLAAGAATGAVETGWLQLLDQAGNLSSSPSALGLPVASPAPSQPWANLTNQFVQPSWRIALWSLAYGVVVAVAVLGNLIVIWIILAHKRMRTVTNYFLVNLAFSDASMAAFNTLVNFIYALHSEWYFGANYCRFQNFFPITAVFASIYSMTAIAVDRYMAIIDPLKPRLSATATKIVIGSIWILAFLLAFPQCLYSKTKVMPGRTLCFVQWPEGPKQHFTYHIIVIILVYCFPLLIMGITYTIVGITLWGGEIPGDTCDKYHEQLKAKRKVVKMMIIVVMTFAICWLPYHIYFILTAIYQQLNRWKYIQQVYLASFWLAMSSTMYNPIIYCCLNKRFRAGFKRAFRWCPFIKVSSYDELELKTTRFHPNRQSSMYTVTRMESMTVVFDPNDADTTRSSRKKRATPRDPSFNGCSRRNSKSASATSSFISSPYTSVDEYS

Neuromedin-K receptor [2] = target: T1, Neuromedin-K receptor; assay: Displacement of ([125I]-His3, MePhe7)-NKB from NK3R (unknown origin) transfected in CHO cells by gamma counting analysis; assay type: cell-based
[3] = target: Substance-P receptor (Homo sapiens) (UniProt P25103); assay: Displacement of [125I]-BH-SP from NK1R (unknown origin) transfected in CHO cells at 10 uM by gamma counting analysis; assay type: cell-based
Substance-P receptor (Homo sapiens), sequence (P25103 whole entry): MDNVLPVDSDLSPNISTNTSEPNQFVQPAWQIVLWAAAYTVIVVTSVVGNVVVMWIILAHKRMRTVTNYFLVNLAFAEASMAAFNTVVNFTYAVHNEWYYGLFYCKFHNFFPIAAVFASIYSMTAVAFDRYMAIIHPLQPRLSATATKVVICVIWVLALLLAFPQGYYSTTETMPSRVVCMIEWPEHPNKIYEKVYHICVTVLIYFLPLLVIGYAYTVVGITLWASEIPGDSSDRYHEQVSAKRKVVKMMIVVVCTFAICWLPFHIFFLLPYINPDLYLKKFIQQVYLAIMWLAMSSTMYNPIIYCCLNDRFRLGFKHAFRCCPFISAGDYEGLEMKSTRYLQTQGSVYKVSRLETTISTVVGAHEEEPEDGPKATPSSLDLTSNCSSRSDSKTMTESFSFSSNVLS

[4] = target: T2, Substance-K receptor (Homo sapiens) (UniProt P21452); assay: Displacement of [125I]-NKA from NK2R (unknown origin) transfected in CHO cells at 10 uM by gamma counting analysis; assay type: cell-based
T2 sequence (whole entry): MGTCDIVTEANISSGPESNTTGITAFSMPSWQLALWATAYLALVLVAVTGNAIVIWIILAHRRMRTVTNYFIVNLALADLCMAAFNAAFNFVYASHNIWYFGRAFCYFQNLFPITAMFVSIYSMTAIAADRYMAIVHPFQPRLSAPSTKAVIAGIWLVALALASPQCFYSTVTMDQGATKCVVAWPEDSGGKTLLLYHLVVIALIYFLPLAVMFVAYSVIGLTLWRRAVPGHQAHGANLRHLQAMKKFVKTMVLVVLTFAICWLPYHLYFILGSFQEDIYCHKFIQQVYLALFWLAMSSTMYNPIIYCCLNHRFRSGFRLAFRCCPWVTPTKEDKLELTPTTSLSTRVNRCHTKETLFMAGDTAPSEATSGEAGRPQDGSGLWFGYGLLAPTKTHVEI

Structure (SMILES) | pEC50 (Neuromedin-K receptor [1]) | pIC50 (Neuromedin-K receptor [2]) | inhibition [3] [%] | inhibition [4] [%]
CSCC[C@H](NC(=O)[C@H](CC(C)C)NC(=O)CNC(=O)[C@H](Cc1ccccc1)N(C)C(=O)[C@H](Cc1ccccc1)NC(=O)[C@H](CCSC)NC(=O)[C@H](CC(=O)O)NC(=O)[C@H](Cc1cnc[nH]1)NC(=O)[C@H](CCSC)NC(=O)[C@@H](N)CC(=O)O)C(N)=O (HELM PEPTIDE1{D.M.H.D.M.F.[meF].G.L.M.[am]}$$$$V2.0) | 10.49 | 8.77 | < 10 | 41
CSCC[C@H](NC(=O)[C@H](CC(C)C)NC(=O)CNC(=O)[C@H](Cc1ccccc1)N(C)C(=O)[C@H](Cc1ccccc1)NC(=O)[C@H](CC(N)=O)NC(=O)[C@H](CC(=O)O)NC(=O)[C@H](Cc1cnc[nH]1)NC(=O)[C@H](CCSC)NC(=O)[C@@H](N)CC(=O)O)C(N)=O (HELM PEPTIDE1{D.M.H.D.N.F.[meF].G.L.M.[am]}$$$$V2.0) | 10.44 | 7.74 | < 10 | 10
CSCC[C@H](NC(=O)[C@H](CC(C)C)NC(=O)CNC(=O)[C@H](Cc1ccccc1)N(C)C(=O)[C@H](Cc1ccccc1)NC(=O)[C@@H]1CCCN1C(=O)[C@H](CC(=O)O)NC(=O)[C@H](Cc1cnc[nH]1)NC(=O)[C@H](CCSC)NC(=O)[C@@H](N)CC(=O)O)C(N)=O (HELM PEPTIDE1{D.M.H.D.P.F.[meF].G.L.M.[am]}$$$$V2.0) | 10.39 | 7.35 | < 10 | 38
CSCC[C@H](NC(=O)[C@H](CC(C)C)NC(=O)CNC(=O)[C@H](Cc1ccccc1)N(C)C(=O)[C@H](Cc1ccccc1)NC(=O)[C@H](CCC(N)=O)NC(=O)[C@H](CC(=O)O)NC(=O)[C@H](Cc1cnc[nH]1)NC(=O)[C@H](CCSC)NC(=O)[C@@H](N)CC(=O)O)C(N)=O (HELM PEPTIDE1{D.M.H.D.Q.F.[meF].G.L.M.[am]}$$$$V2.0) | 10.37 | 8.34 | 24 | 21
CSCC[C@H](NC(=O)[C@H](CC(C)C)NC(=O)CNC(=O)[C@H](Cc1ccccc1)N(C)C(=O)[C@H](Cc1ccccc1)NC(=O)[C@H](CO)NC(=O)[C@H](CC(=O)O)NC(=O)[C@H](Cc1cnc[nH]1)NC(=O)[C@H](CCSC)NC(=O)[C@@H](N)CC(=O)O)C(N)=O (HELM PEPTIDE1{D.M.H.D.S.F.[meF].G.L.M.[am]}$$$$V2.0) | 10.40 | 8.44 | < 10 | 31
CSCC[C@H](NC(=O)[C@H](CC(C)C)NC(=O)CNC(=O)[C@H](Cc1ccccc1)N(C)C(=O)[C@H](Cc1ccccc1)NC(=O)[C@@H](NC(=O)[C@H](CC(=O)O)NC(=O)[C@H](Cc1cnc[nH]1)NC(=O)[C@H](CCSC)NC(=O)[C@@H](N)CC(=O)O)[C@@H](C)O)C(N)=O (HELM PEPTIDE1{D.M.H.D.T.F.[meF].G.L.M.[am]}$$$$V2.0) | 10.34 | 8.37 | < 10 | 19
CSCC[C@H](NC(=O)[C@H](CC(C)C)NC(=O)CNC(=O)[C@H](Cc1ccccc1)N(C)C(=O)[C@H](Cc1ccccc1)NC(=O)[C@@H](NC(=O)[C@H](CC(=O)O)NC(=O)[C@H](Cc1cnc[nH]1)NC(=O)[C@H](CCSC)NC(=O)[C@@H](N)CC(=O)O)C(C)C)C(N)=O (HELM PEPTIDE1{D.M.H.D.V.F.[meF].G.L.M.[am]}$$$$V2.0) | 10.19 | 8.82 | < 10 | 29
CSCC[C@H](NC(=O)[C@H](CC(C)C)NC(=O)CNC(=O)[C@H](Cc1ccccc1)N(C)C(=O)[C@H](Cc1ccccc1)NC(=O)[C@H](Cc1c[nH]c2ccccc12)NC(=O)[C@H](CC(=O)O)NC(=O)[C@H](Cc1cnc[nH]1)NC(=O)[C@H](CCSC)NC(=O)[C@@H](N)CC(=O)O)C(N)=O (HELM PEPTIDE1{D.M.H.D.W.F.[meF].G.L.M.[am]}$$$$V2.0) | 9.55 | 8.74 | < 10 | 79
CSCC[C@H](NC(=O)[C@H](CC(C)C)NC(=O)CNC(=O)[C@H](Cc1ccccc1)N(C)C(=O)[C@H](Cc1ccccc1)NC(=O)[C@H](Cc1ccc(O)cc1)NC(=O)[C@H](CC(=O)O)NC(=O)[C@H](Cc1cnc[nH]1)NC(=O)[C@H](CCSC)NC(=O)[C@@H](N)CC(=O)O)C(N)=O (HELM PEPTIDE1{D.M.H.D.Y.F.[meF].G.L.M.[am]}$$$$V2.0) | 10.14 | 8.82 | < 10 | 51
CSCC[C@H](NC(=O)[C@H](CC(C)C)NC(=O)CNC(=O)[C@H](Cc1ccccc1)N(C)C(=O)[C@H](Cc1ccccc1)NC(=O)[C@H](CC(=O)O)NC(=O)[C@H](CC(=O)O)NC(=O)CNC(=O)[C@@H](NC(=O)[C@@H](N)CC(=O)O)[C@@H](C)O)C(N)=O (HELM PEPTIDE1{D.T.G.D.D.F.[meF].G.L.M.[am]}$$$$V2.0) | 9.96 | 7.09 | < 10 | < 10
CSCC[C@H](NC(=O)[C@H](CC(C)C)NC(=O)CNC(=O)[C@H](Cc1ccccc1)N(C)C(=O)[C@H](Cc1ccccc1)NC(=O)[C@H](CC(=O)O)NC(=O)[C@H](CC(=O)O)NC(=O)[C@H](CO)NC(=O)[C@H](CCCCN)NC(=O)[C@@H]1CCCN1C(=O)[C@@H](NC(=O)[C@@H](N)CC(=O)O)C(C)C)C(N)=O (HELM PEPTIDE1{D.V.P.K.S.D.D.F.[meF].G.L.M.[am]}$$$$V2.0) | 10.07 | 7.57 | < 10 | < 10
CSCC[C@H](NC(=O)[C@H](CC(C)C)NC(=O)CNC(=O)[C@H](Cc1ccccc1)N(C)C(=O)[C@H](Cc1ccccc1)NC(=O)[C@H](CCC(N)=O)NC(=O)[C@H](CC(=O)O)NC(=O)[C@H](CO)NC(=O)[C@H](CCCCN)NC(=O)[C@@H]1CCCN1C(=O)[C@@H](NC(=O)[C@@H](N)CC(=O)O)C(C)C)C(N)=O (HELM PEPTIDE1{D.V.P.K.S.D.Q.F.[meF].G.L.M.[am]}$$$$V2.0) | 10.42 | 7.89 | 46 | 11
CSCC[C@H](NC(=O)[C@H](CC(C)C)NC(=O)CNC(=O)[C@H](Cc1ccccc1)N(C)C(=O)[C@H](Cc1ccccc1)NC(=O)[C@H](CC(=O)O)NC(=O)[C@H](CC(N)=O)NC(=O)[C@@H]1CCCN1C(=O)[C@H](CC(=O)O)NC(=O)[C@H](C)NC(=O)[C@@H]1CCC(=O)N1)C(N)=O (HELM PEPTIDE1{[Glp].A.D.P.N.D.F.[meF].G.L.M.[am]}$$$$V2.0) | 9.82 | 7.27 | 87 | < 10
CSCC[C@H](NC(=O)[C@H](CC(C)C)NC(=O)CNC(=O)[C@H](Cc1ccccc1)N(C)C(=O)[C@H](Cc1ccccc1)NC(=O)[C@H](CC(=O)O)NC(=O)[C@H](CC(=O)O)NC(=O)[C@@H]1CCCN1C(=O)[C@H](CC(N)=O)NC(=O)[C@@H]1CCCN1C(=O)[C@@H]1CCC(=O)N1)C(N)=O (HELM PEPTIDE1{[Glp].P.N.P.D.D.F.[meF].G.L.M.[am]}$$$$V2.0) | 10.08 | 7.72 | < 10 | < 10
CSCC[C@H](NC(=O)[C@H](CC(C)C)NC(=O)CNC(=O)[C@@H](NC(=O)[C@H](Cc1ccccc1)NC(=O)[C@H](CCC(=O)O)NC(=O)[C@H](CC(=O)O)NC(=O)[C@@H]1CCCN1C(=O)[C@H](CC(N)=O)NC(=O)[C@@H]1CCCN1C(=O)[C@@H]1CCC(=O)N1)C(C)C)C(N)=O (HELM PEPTIDE1{[Glp].P.N.P.D.E.F.V.G.L.M.[am]}$$$$V2.0) | 10.10 | 7.28 | 94 | 92
CSCC[C@H](NC(=O)[C@H](CC(C)C)NC(=O)CNC(=O)[C@H](Cc1ccc(O)cc1)NC(=O)[C@H](Cc1ccccc1)NC(=O)[C@H](CCC(=O)O)NC(=O)[C@H](CC(=O)O)NC(=O)[C@@H]1CCCN1C(=O)[C@H](CC(N)=O)NC(=O)[C@@H]1CCCN1C(=O)[C@@H]1CCC(=O)N1)C(N)=O (HELM PEPTIDE1{[Glp].P.N.P.D.E.F.Y.G.L.M.[am]}$$$$V2.0) | 8.86 | 6.15 | 98 | < 10
CSCC[C@H](NC(=O)[C@H](CC(C)C)NC(=O)CNC(=O)[C@H](Cc1ccccc1)N(C)C(=O)[C@H](Cc1ccccc1)NC(=O)[C@H](C)NC(=O)[C@H](CC(=O)O)NC(=O)[C@H](CCCCN)NC(=O)[C@H](CO)NC(=O)[C@@H]1CCCN1C(=O)[C@@H]1CCC(=O)N1)C(N)=O (HELM PEPTIDE1{[Glp].P.S.K.D.A.F.[meF].G.L.M.[am]}$$$$V2.0) | 10.15 | 8.15 | 48 | 26
